Source: PMC8379219 (Nature Communications, 2021)
Blank lines part the entries; values can stand above or below the compound they belong to.

Key:
SERT Q332A = SERT Q332A (Homo sapiens, UniProt P31645, Q332A); test: [3H]5-HT transport, COS-7 cells, S2 mutant Q332A; type: cell-based
Description: (§1) All determinations were performed in triplicate.

SERT F335A = SERT F335A (Homo sapiens, UniProt P31645, F335A); test: [3H]5-HT transport, COS-7 cells, S2 mutant F335A; type: cell-based
Description: as §1

SERT = settings: cited from earlier work
SERT WT = SERT WT (Homo sapiens, UniProt P31645); test: [3H]IMI dissociation rate assay (allosteric potency), COS-7 membranes; type: binding; set-up: expressed in transfected cells; host or cells: COS-7;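 note: radioligand pre-bound 30 min at room temperature to equilibrium, then dissociation followed over 5–70 min, ended by filtration through GF/B filters, at least three independent experiments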

5-HT VMAX (SERT Q332A): 1151 ± 64 pmol/min/10^5 cells | 5-HT VMAX (SERT F335A): 2368 ± 394 pmol/min/10^5 cells
SMILES: NCCc1c[nH]c2ccc(O)cc12 [5-HT, 5-[1,2-^3H]hydroxytryptamine]

SMILES: CN(C)CCCN1c2ccccc2CCc2ccccc21 [IMI, Imipramine]
Allosteric properties at SERT (SERT; ref Plenge et al 1990 Eur J Pharmacol): very weak allosteric properties | Slope for [3H]IMI dissociation (SERT WT): 0.528 ± 0.012 min⁻¹

SMILES: NC(=O)c1ccc2c(c1)CO[C@@]2(CCCN1CCC(c2ccc3ccc(=O)[nH]c3c2)CC1)c1ccc(F)cc1 [Lu AF60097]
Allosteric potency (SERT; [3H]IMI bound to S1): ~ 30 nM
